The target of test [1] is muscarinic cholinergic receptor. Briefly: [3H] Quinuclidinyl Benzilate (3H-QNB) Binding Assay. Details: species or system rat. The note with it: pH 7.4.
Test [2] shares this target. Description: [3H]-Cis-methyldioxolane (3H-CD) Binding Assay (High Affinity). The note with it: rat cerebral cortex, 1.0 nM 3H-CD, 25° C., 120 minutes, pH 7.4.
Where [3] appears, read: rat cerebral cortex, 0.25 nM 3H-QNB, 25° C., 120 minutes.

Where a name gives a salt, the structure may show the parent alone.

One may read the IC50 as the point on the concentration scale where inhibition reaches its midpoint. Take `O=C1[C@@H](S)CCN1CC#CCN1CCCC1` [(S)-3-Mercapto-1-[4-(1-pyrrolidinyl)-2-butynyl]-2-pyrrolidinone, monohydrochloride]: the IC50 in test [1] worked out at 2 µM; in test [2], 0.048 µM.

For the compound `CN(C)CC#CCN1C[C@@H](O)CC1=O`, the figures for the IC50 in test [1] and in test [2] were 1510 µM and 10.1 µM, respectively.

In the case of `CN(C)CC#CCN1CC[C@@H](O)C1=O` [(R)-1-[4-(Dimethylamino)-2-butynyl]-3-hydroxy-2-pyrrolidinone], the IC50 was 1470 µM in test [1] and 0.578 µM in test [2].

With `CC(=O)OC1CCN(CC#CCN(C)C(C)=O)C1` (racemic) [(Racemic)-N-[4-(3-(Acetyloxy)-1-pyrrolidinyl]-2-butynyl]-N-methyl acetamide, (Racemic)-N-[4-[3-(Acetyloxy)-1-pyrrolidinyl]-2-butynyl]-N-methyl acetamide], the IC50 in test [1] was 1930 µM; in test [2] it was 5.46 µM.

For `CC(=O)S[C@H]1CCN(CC#CCN(C)C)C1=O` [(S)-S-[1-[4-(Dimethylamino)-2-butynyl]-2-oxo-3-pyrrolidinyl]ethanethioic acid ester], the values for the IC50 in test [1] and in test [2] were 40 µM and 1.53 µM, respectively.

With `CC(=O)O[C@H]1CC(=O)N(CC#CCN2CCCCC2)C1` [(S)-4-(Acetyloxy)-1-[4-(1-piperidinyl)-2-butynyl]-2-pyrrolidinone], the IC50 in test [1] was 159 µM; in test [2], 9.57 µM.

On to `O=C1C[C@H](O)CN1CC#CCN1CCCC1` [(S)-4-Hydroxy-1-[4-(1-pyrrolidinyl)-2-butynyl]-2-pyrrolidinone], for which the IC50 in test [1] came out at 270 µM; in test [2], 4.91 µM.

Take `CC(=O)O[C@H]1CC(=O)N(CC#CCN(C)C)C1` [(S)-4-(Acetyloxy)-1-[4-(dimethylamino)-2-butynyl]-2-pyrrolidinone]: the IC50 in test [1] stood at 1350 µM; in test [2], 41.9 µM.

`O=C1C[C@H](O)CN1CC#CCN1CCCCC1` [(S)-4-Hydroxy-1-[4-(1-piperidinyl)-2-butynyl]-2-pyrrolidinone]: the IC50 in test [1] was 200 µM; in test [2], 36.1 µM.

In the case of `CC(=O)S[C@@H]1CCN(CC#CCN(C)C)C1=O` [(R)-S-[1-[4-(Dimethylamino)-2-butynyl]-2-oxo-3-pyrrolidinyl]ethanethioic acid ester], the IC50 in test [1] was found to be 20 µM; in test [2] it was 0.062 µM.

For `O=C1C[C@@H](O)CN1CC#CCN1CCCCC1` [(R)-4-Hydroxy-1-[4-(1-piperidinyl)-2-butynyl]-2-pyrrolidinone], the IC50 in test [1] worked out at 166 µM; in test [2] it was 3.79 µM.

Turning to `O=C(O[C@@H]1CCN(CC#CCN2CCCC2)C1=O)c1ccc([N+](=O)[O-])cc1` [(R)-3-[(4-Nitrobenzoyl)oxy]-1-[4-(1-pyrrolidinyl)-2-butynyl]-2-pyrrolidinone], the IC50 in test [1] (setting [3]) was 59 µM; in test [2], 4.29 µM.

For the compound `CN(C)CC#CCN1CC[C@H](O[Si](C)(C)C(C)(C)C)C1=O` [(S)-1-[4-(Dimethylamino)-2-butynyl]-3-[[(1,1-dimethylethyl)dimethylsilyl]oxy]-2-pyrrolidinone], the concentration for half-maximal inhibition (IC50) in test [1] amounted to 200 µM; in test [2] it was 19.5 µM.

Consider `CC(C)(C)[Si](C)(C)O[C@H]1CC(=O)N(CC#CCN2CCCC2)C1` [(S)-4-[[(1,1-Dimethylethyl)dimethylsilyl]oxy]-1-[4-(1-pyrrolidinyl)-2-butynyl]-2-pyrrolidinone], for which the IC50 in test [1] worked out at 23 µM; in test [2], 9.57 µM.

Turning to `O=C1C[C@@H](O)CN1CC#CCN1CCCC1` [(R)-4-Hydroxy-1-[4-(1-pyrrolidinyl)-2-butynyl]-2-pyrrolidinone], the half-inhibitory concentration (IC50) in test [1] worked out at 52 µM; in test [2], 0.053 µM.

Consider `O=C1C(S)CCN1CC#CCN1CCCCC1` (centres unmarked) [3-Mercapto-1-[4-(1-piperidinyl)-2-butynyl]-2-pyrrolidinone], for which the IC50 in test [1] came to 11 µM; in test [2], 0.587 µM.

Regarding `O=C1[C@H](O)CCN1CC#CCN1CCCCC1` [(R)-3-Hydroxy-1-[4-(1-piperidinyl)-2-butynyl]-2-pyrrolidinone], the IC50 in test [1] worked out at 84 µM; in test [2], 3.46 µM.

With `C[N+](C)(C)CC#CCN1CCCC1=O` [N,N,N-Trimethyl-4-(2-oxo-1-pyrrolidinyl)-2-butyn-1-aminium iodide, reference compound], the results for the IC50 in test [1] and in test [2] were 18 µM and 0.003 µM, respectively.

With `CC(=O)S[C@H]1CCN(CC#CCN2CCCC2)C1=O` [(S)-S-(2-Oxo-1-[4-(1-pyrrolidinyl)-2-butynyl]-3-pyrrolidinyl]ethanethioic acid ester], the IC50 in test [1] was found to be 4 µM; in test [2], 0.07 µM.

`O=C1[C@H](O)CCN1CC#CCN1CCCC1` [(R)-3-Hydroxy-1-[4-(1-pyrrolidinyl)-2-butynyl]-2-pyrrolidinone]: the IC50 is 47 µM in test [1] and 0.134 µM in test [2].

For `CC(=O)O[C@@H]1CCN(CC#CCN2CCCCC2)C1=O` [(R)-3-(Acetyloxy)-1-[4-(1-piperidinyl)-2-butynyl]-2-pyrrolidinone], the IC50 amounted to 419 µM in test [1] and 4.47 µM in test [2].

Consider `CN(C)CC#CCN1C[C@H](O)CC1=O` [(R)-1-[4-(Dimethylamino)-2-butynyl]-4-hydroxy-2-pyrrolidinone], for which the IC50 in test [1] worked out at 2350 µM; in test [2], 0.578 µM.

On to `CC(=O)O[C@H]1CCN(CC#CCN2CCCC2=O)C1` [(S)-1-[4-[3-(Acetyloxy)-1-pyrrolidinyl]-2-butynyl]-2-pyrrolidinone], for which the IC50 in test [1] came to 2320 µM; in test [2] it was 2.02 µM.

Take `CC(=O)O[C@H]1CCN(CC#CCN2CCCCC2)C1=O` [(S)-3-(Acetyloxy)-1-[4-(1-piperidinyl)-2-butynyl]-2-pyrrolidinone]: the IC50 in test [1] stood at 367 µM; in test [2] it was 1.45 µM.

In turn, `CC(=O)S[C@@H]1CCN(CC#CCN2CCCCC2)C1=O` [(R)-S-[2-Oxo-1-(4-piperidinyl-2-butynyl)-3-pyrrolidinyl]ethanethioic acid ester] displayed an IC50 in test [2] of 0.946 µM.

On to `COC1CCN(CC#CCN2CCCC2=O)C1` (racemic) [(Racemic)-1-[4-(3-Methoxy-1-pyrrolidinyl)-2-butytnyl]-2-pyrrolidinone, (Racemic)-1-[4-(3-Methoxy-1-pyrrolidinyl)-2-butynyl]-2-pyrrolidinone], for which the IC50 in test [1] worked out at 110 µM; in test [2], 1.75 µM.

For the compound `CC(=O)S[C@@H]1CCN(CC#CCN2CCCCC2)C1=O` [(R)-S-[2-Oxo-1-[4-(1-piperidinyl)-2-butynyl]-3-pyrrolidinyl]] [(R)-S-[2-Oxo-1-[4-(1-piperidinyl)-2-butynyl]-3-pyrrolidinyl]ethanethioic acid ester], the IC50 in test [1] is 4.3 µM; in test [2], 0.03 µM.

In the case of `CN(C)CC#CCN1CC[C@@H](OC(=O)c2ccc([N+](=O)[O-])cc2)C1=O` [(R)-1-[4-(Dimethylamino)-2-butynyl]-3-[(4-nitrobenzoyl)oxy]-2-pyrrolidinone], the IC50 stood at 113 µM in test [1] (setting [3]) and 5.01 µM in test [2].

For `COC1CCN(CC#CCN(C)C(C)=O)C1` (racemic) [(Racemic)-N-[4-(3-Methoxy-1-pyrrolidinyl)-2-butynyl]-N-methyl acetamide], the IC50 was 377 µM in test [1] and 1.37 µM in test [2].

For the compound `O=C1[C@H](SS[C@@H]2CCN(CC#CCN3CCCCC3)C2=O)CCN1CC#CCN1CCCCC1` [[R-(R*,R*)]-3,3'-dithiobis[1-[4-(1-piperidinyl)-2-butynyl]]-2-pyrrolidinone], the IC50 in test [1] (setting [3]) is 9 µM; in test [2], 1.83 µM.

Regarding `CC(=O)O[C@@H]1CC(=O)N(CC#CCN(C)C)C1` [(R)-4-(Acetyloxy)-1-[4-(dimethylamino)-2-butynyl]-2-pyrrolidinone], the IC50 in test [1] turned out to be 1780 µM; in test [2], 11.5 µM.

As to `O=C1[C@@H](O)CCN1CC#CCN1CCCC1` [(S)-3-Hydroxy-1-[4-(1-pyrrolidinyl)-2-butynyl]-2-pyrrolidinone], the IC50 was found to be 11 µM in test [1] and 0.009 µM in test [2].

On to `CC(C)(C)[Si](C)(C)O[C@H]1CCN(CC#CCN2CCCCC2)C1=O` [(S)-3-[[(1,1-Dimethylethyl)dimethylsilyl]oxy]-1-[4-(1-piperidinyl)-2-butynyl]-2-pyrrolidinone], for which the results for the IC50 in test [1] and in test [2] were 24 µM and 0.161 µM, respectively.

In the case of `CC(=O)O[C@H]1CCN(CC#CCN(C)C)C1=O` [(S)-3-(Acetyloxy)-1-[4-(dimethylamino)-2-butynyl]-2-pyrrolidinone], the IC50 in test [1] came out at 1360 µM; in test [2] it was 0.521 µM.

As for `CC(=O)OC1CCN(CC#CCN2CCCC2=O)C1` (racemic) [(Racemic)-1-[4-[3-(Acetyloxy)-1-pyrrolidinyl]-2-butynyl]-2-pyrrolidinone], the results for the IC50 in test [1] and in test [2] were 313 µM and 1.33 µM, respectively.

For `O=C1CCCN1CC#CCN1CCCCC1` [1-[4-(1-Piperidinyl)-2-butynyl]-2-pyrrolidinone, reference compound], the IC50 in test [1] came to 2 µM; in test [2], 0.077 µM.

With `CC(=O)O[C@@H]1CCN(CC#CCN2CCCC2)C1=O` [(R)-3-(Acetyloxy)-1-[4-(1-pyrrolidinyl)-2-butynyl]-2-pyrrolidinone], the results for the IC50 in test [1] and in test [2] were 231 µM and 0.547 µM, respectively.

As for `CC(=O)S[C@H]1CCN(CC#CCN2CCCCC2)C1=O` [(S)-S-[2-Oxo-1-[4-(1-piperidinyl)-2-butynyl]-3-pyrrolidinyl]ethanethioic acid ester], the IC50 was 14 µM in test [1] and 2.43 µM in test [2].

For the compound `CN(C)CC#CCN1CCCC1=O` [1-[4-(Dimethylamino)-2-butynyl]-2-pyrrolidinone, reference compound], the IC50 in test [1] is 163 µM; in test [2], 0.044 µM.

`CNC(=O)O[C@H]1CCN(CC#CCN2CCCCC2)C1=O` [(S)-3-[[(Methylamino)carbonyl]oxy]-1-[4-(1-piperidinyl)-2-butynyl]-2-pyrrolidinone]: the figures for the IC50 in test [1] (setting [3]) and in test [2] were 744 µM and 87 µM, respectively.

In test [1], `CC(=O)S[C@@H]1CCN(CC#CCN2CCCCC2)C1=O` [(R)-S-[2-Oxo-1-(4-piperidinyl-2-butynyl)-3-pyrrolidinyl]etha] [(R)-S-[2-Oxo-1-(4-piperidinyl-2-butynyl)-3-pyrrolidinyl]ethanethioic acid ester] displayed an IC50 of 91 µM.
